Patent publication US20260042731A1, “(2,4-DICHLOROPHENOXY)ACETIC ACID ANALOGS” (CORTEVA AGRISCIENCE LLC, priority 2022, published 2026)
Read-outs that look alike come from different tables or passages of the source.

Key:
[1] = Volatility of compounds measured by thermogravimetric analysis (TGA); type: physicochemical
[2] = tested on: Abutilon theophrasti (ABUTH), velvetleaf; experiment: Postemergence herbicide evaluation, growth of Abutilon theophrasti (ABUTH); type: in vivo; settings: Abutilon theophrasti, post-emergence, read-out: AVE. ABUTH
[3] = tested on: Chenopodium album (CHEAL), common lambsquarters; experiment: Postemergence herbicide evaluation, growth of Chenopodium album (CHEAL); type: in vivo; settings: Chenopodium album, post-emergence, read-out: Ave. CHEAL
[4] = tested on: weeds (ABUTH, AMATA, AMBEL, CHEAL, ERICA); experiment: Postemergence herbicide evaluation, overall average % weed control across ABUTH, AMATA, AMBEL, CHEAL, ERICA; type: in vivo; settings: post-emergence, read-out: Overall Ave % Weed Control
[5] = tested on: Amaranthus rudis (AMATA), tall water hemp; experiment: Postemergence herbicide evaluation, growth of Amaranthus rudis (AMATA); type: in vivo; settings: Amaranthus tuberculatus, post-emergence, read-out: Ave. AMATA
[6] = tested on: Ambrosia artemisiifolia (AMBEL), common ragweed; experiment: Postemergence herbicide evaluation, growth of Ambrosia artemisiifolia (AMBEL); type: in vivo; settings: Ambrosia artemisiifolia, post-emergence, read-out: AVE. AMBEL
[7] = tested on: glyphosate resistant Conyza canadensis (L.) (ERICA), horseweed; experiment: Postemergence herbicide evaluation, growth of Conyza canadensis (ERICA); type: in vivo; settings: Erigeron canadensis, post-emergence, read-out: Ave. ERICA
[8] = 168 h, 280 g ae/ha, 7 DAA, average over the five weeds
[9] = 168 h, 560 g ae/ha, 7 DAA, average over the five weeds
[10] = 336 h, 280 g ae/ha, 14 DAA, average over the five weeds
[11] = 336 h, 560 g ae/ha, 14 DAA, average over the five weeds
[12] = 504 h, 280 g ae/ha, 21 DAA, average over the five weeds
[13] = 504 h, 560 g ae/ha, 21 DAA, average over the five weeds
[14] = 168 h, 280 g ae/ha, 7 DAA, percent reduction in plant size relative to untreated control
[15] = 168 h, 560 g ae/ha, 7 DAA, percent reduction in plant size relative to untreated control
[16] = 336 h, 280 g ae/ha, 14 DAA, percent reduction in plant size relative to untreated control
[17] = 336 h, 560 g ae/ha, 14 DAA, percent reduction in plant size relative to untreated control
[18] = 504 h, 280 g ae/ha, 21 DAA, percent reduction in plant size relative to untreated control
[19] = 504 h, 560 g ae/ha, 21 DAA, percent reduction in plant size relative to untreated control

O=C(COc1ccc(Cl)cc1Cl)OCc1ccccc1 [Compound E4, Benzyl 2-(2,4-dichlorophenoxy)acetate]
TGA Data (rate of weight loss, volatility) [1]: 0.4 µg/min
pest or weed control at 280 g/ha ([2]; 168 h): 90%
pest or weed control at 560 g/ha ([2]; 168 h): 90%
pest or weed control at 280 g/ha ([2]; 336 h): 97%
pest or weed control at 560 g/ha ([2]; 336 h): 97%
pest or weed control at 280 g/ha ([2]; 504 h): 99%
pest or weed control at 560 g/ha ([2]; 504 h): 98%
pest or weed control at 280 g/ha ([3]; 168 h): 73%
pest or weed control at 560 g/ha ([3]; 168 h): 70%
pest or weed control at 280 g/ha ([3]; 336 h): 83%
pest or weed control at 560 g/ha ([3]; 336 h): 73%
pest or weed control at 280 g/ha ([3]; 504 h): 88%
pest or weed control at 560 g/ha ([3]; 504 h): 75%
pest or weed control at 280 g/ha ([4]; 168 h): 74%
pest or weed control at 560 g/ha ([4]; 168 h): 77%
pest or weed control at 280 g/ha ([4]; 336 h): 84%
pest or weed control at 560 g/ha ([4]; 336 h): 90%
pest or weed control at 280 g/ha ([4]; 504 h): 90%
pest or weed control at 560 g/ha ([4]; 504 h): 92%
pest or weed control at 280 g/ha ([5]; 168 h): 68%
pest or weed control at 560 g/ha ([5]; 168 h): 78%
pest or weed control at 280 g/ha ([5]; 336 h): 65%
pest or weed control at 560 g/ha ([5]; 336 h): 93%
pest or weed control at 280 g/ha ([5]; 504 h): 70%
pest or weed control at 560 g/ha ([5]; 504 h): 91%
pest or weed control at 280 g/ha ([6]; 168 h): 68%
pest or weed control at 560 g/ha ([6]; 168 h): 73%
pest or weed control at 280 g/ha ([6]; 336 h): 89%
pest or weed control at 560 g/ha ([6]; 336 h): 97%
pest or weed control at 280 g/ha ([6]; 504 h): 99%
pest or weed control at 560 g/ha ([6]; 504 h): 99%
pest or weed control at 280 g/ha ([7]; 168 h): 70%
pest or weed control at 560 g/ha ([7]; 168 h): 75%
pest or weed control at 280 g/ha ([7]; 336 h): 88%
pest or weed control at 560 g/ha ([7]; 336 h): 93%
pest or weed control at 280 g/ha ([7]; 504 h): 95%
pest or weed control at 560 g/ha ([7]; 504 h): 99%

O=C(COc1ccc(Cl)cc1Cl)Oc1ccc(Cl)cc1 [Compound E5, 4-Chlorophenyl 2-(2,4-dichlorophenoxy)acetate]
TGA Data (rate of weight loss, volatility) [1]: 0.6 µg/min
pest or weed control at 280 g/ha ([2]; 168 h): 78%
pest or weed control at 560 g/ha ([2]; 168 h): 85%
pest or weed control at 280 g/ha ([2]; 336 h): 93%
pest or weed control at 560 g/ha ([2]; 336 h): 93%
pest or weed control at 280 g/ha ([2]; 504 h): 98%
pest or weed control at 560 g/ha ([2]; 504 h): 97%
pest or weed control at 280 g/ha ([3]; 168 h): 70%
pest or weed control at 560 g/ha ([3]; 168 h): 68%
pest or weed control at 280 g/ha ([3]; 336 h): 73%
pest or weed control at 560 g/ha ([3]; 336 h): 83%
pest or weed control at 280 g/ha ([3]; 504 h): 80%
pest or weed control at 560 g/ha ([3]; 504 h): 94%
pest or weed control at 280 g/ha [4, 8]: 71%
pest or weed control at 560 g/ha [4, 9]: 75%
pest or weed control at 280 g/ha [4, 10]: 84%
pest or weed control at 560 g/ha [4, 11]: 88%
pest or weed control at 280 g/ha [4, 12]: 88%
pest or weed control at 560 g/ha [4, 13]: 93%
pest or weed control at 280 g/ha ([5]; 168 h): 73%
pest or weed control at 560 g/ha ([5]; 168 h): 78%
pest or weed control at 280 g/ha ([5]; 336 h): 75%
pest or weed control at 560 g/ha ([5]; 336 h): 89%
pest or weed control at 280 g/ha ([5]; 504 h): 78%
pest or weed control at 560 g/ha ([5]; 504 h): 86%
pest or weed control at 280 g/ha ([6]; 168 h): 68%
pest or weed control at 560 g/ha ([6]; 168 h): 75%
pest or weed control at 280 g/ha ([6]; 336 h): 89%
pest or weed control at 560 g/ha ([6]; 336 h): 93%
pest or weed control at 280 g/ha ([6]; 504 h): 90%
pest or weed control at 560 g/ha ([6]; 504 h): 98%
pest or weed control at 280 g/ha ([7]; 168 h): 68%
pest or weed control at 560 g/ha ([7]; 168 h): 70%
pest or weed control at 280 g/ha ([7]; 336 h): 90%
pest or weed control at 560 g/ha ([7]; 336 h): 83%
pest or weed control at 280 g/ha ([7]; 504 h): 95%
pest or weed control at 560 g/ha ([7]; 504 h): 90%

Cc1cc(OC(=O)COc2ccc(Cl)cc2Cl)n(C)n1 [Compound E6, 1,3-Dimethyl-1H-pyrazol-5-yl 2-(2,4-dichlorophenoxy)acetate]
TGA Data (rate of weight loss, volatility) [1]: 1 µg/min
pest or weed control at 280 g/ha [2, 14]: 83%
pest or weed control at 560 g/ha [2, 15]: 83%
pest or weed control at 280 g/ha [2, 16]: 88%
pest or weed control at 560 g/ha [2, 17]: 93%
pest or weed control at 280 g/ha [2, 18]: 96%
pest or weed control at 560 g/ha [2, 19]: 94%
pest or weed control at 280 g/ha [3, 14]: 63%
pest or weed control at 560 g/ha [3, 15]: 70%
pest or weed control at 280 g/ha [3, 16]: 65%
pest or weed control at 560 g/ha [3, 17]: 85%
pest or weed control at 280 g/ha [3, 18]: 58%
pest or weed control at 560 g/ha [3, 19]: 90%
pest or weed control at 280 g/ha [4, 8]: 69%
pest or weed control at 560 g/ha [4, 9]: 73%
pest or weed control at 280 g/ha [4, 10]: 79%
pest or weed control at 560 g/ha [4, 11]: 86%
pest or weed control at 280 g/ha [4, 12]: 82%
pest or weed control at 560 g/ha [4, 13]: 90%
pest or weed control at 280 g/ha [5, 14]: 70%
pest or weed control at 560 g/ha [5, 15]: 75%
pest or weed control at 280 g/ha [5, 16]: 82%
pest or weed control at 560 g/ha [5, 17]: 80%
pest or weed control at 280 g/ha [5, 18]: 70%
pest or weed control at 560 g/ha [5, 19]: 77%
pest or weed control at 280 g/ha [6, 14]: 65%
pest or weed control at 560 g/ha [6, 15]: 73%
pest or weed control at 280 g/ha [6, 16]: 80%
pest or weed control at 560 g/ha [6, 17]: 88%
pest or weed control at 280 g/ha [6, 18]: 93%
pest or weed control at 560 g/ha [6, 19]: 96%
pest or weed control at 280 g/ha [7, 14]: 63%
pest or weed control at 560 g/ha [7, 15]: 65%
pest or weed control at 280 g/ha [7, 16]: 83%
pest or weed control at 560 g/ha [7, 17]: 83%
pest or weed control at 280 g/ha [7, 18]: 96%
pest or weed control at 560 g/ha [7, 19]: 95%
